According to article PMC7756392, “Syntheses of Thailandepsin B Pseudo‐Natural Products: Access to New Highly Potent HDAC Inhibitors via Late‐Stage Modification” (Chemistry (Weinheim an Der Bergstrasse, Germany), 2020):

Experiments:
Assay type in all cases: cell-based
HDAC in HL60 cells = experiment: Cellular HDAC activity assay, HL60; conditions: read-out: cellular HDAC inhibition IC50
Method: Cellular trypsin-based activity assay:13 1 x 10^4 Hela cells (50 µL) were seeded in sterile dark 96-well microtiter plates (Perkin Elmer) and incubated overnight at 37 °C and 5% CO2 atmosphere. The next day, the medium was aspirated and the cells were incubated with different inhibitor concentrations or DMSO, diluted in 50 µL m edium without supplements and phenol red. After 2 h incubation time, 50 µL of the HDAC substrate MAL (Boc -Lys(Ac)-AMC) were added to a final concentration of 150 µM and the plate was incubated for 2 h at 37°C and 5%
CO2. The reaction was stopped by adding 50 µL of stop solution (50 mM Tris, 137 mM NaCl, 1 mM MgCl2, 2.7 mM KCl, 1 µM TSA, 0.1% Igepal, 1 mg/ml Trypsin). After another 20 min of incubation, the fluorescence signal (λex = 390 nm, λem = 460 nm) was measured on a BMG LABTECH POLARstar OPTIMA plate reader (BMG Labtechnologies, Germany). […]

acetylated histone 3 = experiment: Western blot, acetyl-histone 3 in HL60 cells
Method: (§1) LABTECH POLARstar OPTIMA plate reader (BMG Labtechnologies, Germany).
(§2) Western Blot: 2.5 x 10^5 HL60 cells were seeded in sterile 12-well plates and incubated with different concentrations of compound or DMSO for 4 h. Cells were washed with cold PBS, lysed with 90 µL SDS sample buffer (Cell Signaling, 62.5 mM Tris-HCl (pH 6.8 at 25°C), 2% w/v SDS, 10% v/v glycerol, 50 mM dithiothreitol, 0.01% bromophenol blue), shortly sonicated and heated to 95°C for 5 min. Cell extracts were used directly for SDS-PAGE or kept frozen at -20 […]
(§3) For the SDS-PAGE, 7 µL cell lysate were loaded on a 12.5% gel and the gel was run at 150V for approximately 1 h, followed by the transfer to a nitrocellulose membrane. The membrane was blocked with 5% milk in TBS-T 0.1% for 1 h at room temperature and washed (3 x 5 min) with TBS-T before adding the antibodies. Western blot analysis was performed with the following primary antibodies: anti-acetylated α-tubulin (Sigma-Aldrich, 1:1000), anti-acetyl-histone 3 (Millipore, 1:2000) and anti-GAPDH (Sigma-Aldrich, 1:5000) and secondary antibodies: anti-mouse-IgG-HRP (Sigma-Aldrich, 1:10000) and anti-rabbit IgG-HRP (Sigma- […]
(§4) Aldrich, 1:5000). The antibodies were all diluted in 3% milk in TBS-T 0.1%. Detection was performed via enhanced chemiluminescence (ECL Prime) using a FUSION-SL (PEQLAB) and the FUSION-CAPT software.
(§5) Figure 4: Western blot of acetyl-α-tubulin, acetyl-H3 and GAPDH after treatment of HL60 cells with different concentrations of 33 or DMSO for 4 h. GAPDH was used as loading control, DMSO as negative control. […]

acetylated α-tubulin = experiment: Western blot, acetylated α-tubulin in HL60 cells; conditions: for ac-tubulin: HL60 cells, 4 h
Method: as §1, §2, §3, §4, §5

Row | Compound | IC50 (HDAC in HL60 cells) | isotype selectivity for class I HDACs in cells (western blot) (acetylated histone 3; HL60 cells, 4 h) | ac-histone 3 (acetylated histone 3; HL60 cells, 4 h, 0.0001 µM) | ac-histone 3 (acetylated histone 3; HL60 cells, 4 h, 0.001 µM) | ac-histone 3 (acetylated histone 3; HL60 cells, 4 h, 0.01 µM) | ac-histone 3 (acetylated histone 3; HL60 cells, 4 h, 0.1 µM) | levels of acetylated histone 3 with increasing inhibitor concentration (in words) (acetylated histone 3; western blot) | ac-tubulin (acetylated α-tubulin; 0.0001 µM) | ac-tubulin (acetylated α-tubulin; 0.01 µM) | ac-tubulin (acetylated α-tubulin; 0.1 µM) | ac-tubulin (acetylated α-tubulin; 1 µM) | levels of acetylated α-tubulin with increasing inhibitor concentration (in words) (acetylated α-tubulin; western blot)
1 | CCCC[C@H]1NC(=O)C[C@@H](/C=C/CCSC(C)=O)OC(=O)C[C@H](O[Si](C)(C)C(C)(C)C)[C@@H]([C@@H](C)CC)NC(=O)[C@@H](C)NC1=O [compound 32] | 66.3 ± 3.5 µM | – | – | – | – | – | – | – | – | – | – | –
2 | CCCC[C@H]1NC(=O)C[C@@H](/C=C/CCSC(C)=O)OC(=O)C[C@H](O)[C@@H]([C@@H](C)CC)NC(=O)[C@@H](C)NC1=O [compound 33] | 0.0091 ± 0.0008 µM | selective inhibition of class I HDACs | 1.1% | 0.9% | 1.8% | 4.4% | increasing levels | 1.1% | 1.1% | 1.3% | 1.4% | Constant levels
